The source of these data is patent US9156853B2, “AKT inhibitor compounds for treatment of cancer” (ALMAC DISCOVERY LIMITED, priority 2012, dated 2015).

What is called fraction unbound is the share of the substance not bound to proteins or other matrix. Read a low fraction unbound as little free substance. Usually IC50 stands for the concentration that inhibits the measured activity by half.

A short description of data set [1]: Plasma protein binding (fraction unbound, human plasma). The format is in vitro ADME. As to the method: (§1) SelectScreen® data was determined at Invitrogen. Plasma protein binding and pharmacokinetic analyses were determined using standard protocols.
The target of another data set is T1, AKT3 (Homo sapiens, UniProt Q9Y243).
T1 construct: purchased SignalChem
Kind of data set: AKT Kinase Assay (IMAP fluorescent polarisation), AKT3 isoform. The format is biochemical. To be noted: for IC50: activated AKT3, FAM Crosstide substrate; for potency against AKT3 compared with the comparator compound: compared with the non-hydroxylated Compound A, F or L. As to the method: (§2) Testing of the compounds was performed using an AKT Kinase Assay:
(§3) Activated AKT isoforms 1, 2 and 3 were assayed utilising a 5′ FAM Crosstide (Seq. GRPRTSSFAEG-OH). The extent of kinase phosphorylation was determined by fluorescent polarisation using IMAP progressive binding reagent, which introduces binding beads which allow the reagent to specifically bind to phosphate residues via covalent co-ordination complex bonds.
(§4) iMAP binding solution stops Crosstide/kinase interaction and specifically binds phosphorylated substrates. The degree of phosphorylation is determined by fluorescent polarisation (excitation 485 nm; emission 528 nm) or the reduction in speed of rotation of the excited substrate.
(§5) The following materials were used in the assay: • a) Activated AKT isoforms (SignalChem.) dissolved in Complete Reaction buffer at a predetermined concentration selected so that the assay was carried out in the linear range. • b) AKT substrate peptide: FAM Crosstide (R7110) Molecular Devices, diluted in complete reaction buffer. • c) iMAP Progressive Screening Express Kit (R8127) Molecular Devices • d) Complete Reaction Buffer containing 0.1% BSA, 10 mM Tris-HCl, 10 mM MgCl2, 0.05% NaN3 and 0.01% phosphate free BSA, 1 mM DTT • e) Progressive Binding Solution containing 75% Buffer A, 25% Buffer B and low volume Binding Reagent which contains the binding entity for the assay • f) ATP diluted in complete reaction buffer • g) Black polystyrene 384 well assay plates (Nunc). • h) Biotek Synergy 4 Hybrid Plate reader.
(§6) 5 μl of test compound was dissolved in DMSO (Sigma Aldrich) and serially diluted in complete reaction buffer to give a fourteen point half log dose response and plated into 384 well black plates. The compound was incubated at room temperature with activated AKT isoform (5 μl) at the predetermined concentration, for 45 min.
(§7) 2.5 μl of ATP solution mixed with 2.5 μl of AKT substrate peptide (FAM Crosstide (R7110) Molecular Devices) were dispensed into each well and the plate centrifuged at 1000 rpm for 20 seconds to ensure homogenous mixing of reagents. The reaction mix was incubated in the dark for 1 h at room temperature.
(§8) The kinase reaction was stopped by the addition of Progressive Binding Solution and the mixture allowed to equilibrate for 1 h in the dark, at room temperature.
(§9) The fluorescent polarisation generated in each well was determined using a […] Synergy 4 Hybrid plate reader. In brief, each reaction solution was excited at 485 nm with the emission measured at 528 nm in both the parallel and perpendicular pathway.
(§10) The polarisation value generated in each well was calculated by Gen5 software (Biotek) and the % inhibition of kinase activity compared to vehicle control was calculated via GraphPad Prism. IC50 values for each compound were calculated by non-linear regression analysis using Prism software.
(§11) All plates were internally controlled by two methods. Firstly, by calculating the signal:noise ratio; based on kinase polarisation without inhibitor and polarisation generated by complete reaction buffer in the absence of activated kinase. Secondly by determining IC50 values generated by known inhibitors of the AKT isoforms.
(§12) The data was analysed using GraphPad Prism, with IC50 values generated using non-linear regression of the data set.

Data set [2] has as its system pAKT (Ser473) in PC3 cells. Briefly: Inhibition of pAKT in PC3 cells. The format is cell-based. The note with it: Homo sapiens, PC-3, 24 h incubation, read-out: inhibition of pAKT in PC3 cell lines, IC50. As to the method: Analysis of Compound Effects on AKT Signalling Pathways: Inhibition of pAKT in PC3 Cells
PC3 cells were seeded overnight in 96 well plates followed by serum starvation for 4 h. Increasing concentrations of AKT inhibitor, in complete medium (RPMI 1640), were added to the cells and incubated for a further 24 h.
The cells were fixed in paraformaldehyde, permeabilised and blocked in BSA, followed by incubation with pAKT (Ser473) and total AKT antibody overnight (R&D Systems). Secondary antibody mixture was added, followed by a combination of fluorescent substrates added for a final incubation.
Fluorescent intensities for each antibody were read at 540/600 nm and 360/450 nm respectively on a Synergy 4 plate reader. The percentage change in fluorescent intensity was plotted against log concentration of inhibitor; to generate IC50 values (GraphPad Prism).

Data set [3] is described as follows: Pharmacokinetic analysis, half-life in rat. The format is in vivo. To be noted: for half-life: rat, in vivo, read-out: T½ (rat) h. As to the method:
as §1

In another data set the test system is kinases other than AKT1. Briefly: SelectScreen kinase panel (Invitrogen). Type of data set: biochemical. The note with it: for >=80% in Selectscreen (at 10 uM) other than AKT1: number of kinases other than AKT1 with >=80% at 10 uM. As to the method: as §1
The target in the next data set is T2, AKT2 (Homo sapiens, UniProt P31751).
T2 construct: purchased SignalChem
Briefly: AKT Kinase Assay (IMAP fluorescent polarisation), AKT2 isoform. The format is biochemical. The note with it: for IC50: activated AKT2, FAM Crosstide substrate; for potency against AKT2 compared with the comparator compound: compared with the non-hydroxylated Compound A, F or L. As to the method: as §2, §3, §4, §5, §6, §7, §8, §9, §10, §11, §12

A further data set deals with T3, AKT1 (Homo sapiens, UniProt P31749).
T3 construct: purchased SignalChem
Kind of data set: AKT Kinase Assay (IMAP fluorescent polarisation), AKT1 isoform. The format is biochemical. The note with it: for IC50: activated AKT1, FAM Crosstide substrate; for potency against AKT1 compared with the comparator compound: compared with the non-hydroxylated Compound A, F or L. The protocol:
as §2, §3, §4, §5, §6, §7, §8, §9, §10, §11, §12

Molecules are shown by their SMILES. Counter-ions that a name gives are not always drawn.

T3 sequence (P31749 whole entry): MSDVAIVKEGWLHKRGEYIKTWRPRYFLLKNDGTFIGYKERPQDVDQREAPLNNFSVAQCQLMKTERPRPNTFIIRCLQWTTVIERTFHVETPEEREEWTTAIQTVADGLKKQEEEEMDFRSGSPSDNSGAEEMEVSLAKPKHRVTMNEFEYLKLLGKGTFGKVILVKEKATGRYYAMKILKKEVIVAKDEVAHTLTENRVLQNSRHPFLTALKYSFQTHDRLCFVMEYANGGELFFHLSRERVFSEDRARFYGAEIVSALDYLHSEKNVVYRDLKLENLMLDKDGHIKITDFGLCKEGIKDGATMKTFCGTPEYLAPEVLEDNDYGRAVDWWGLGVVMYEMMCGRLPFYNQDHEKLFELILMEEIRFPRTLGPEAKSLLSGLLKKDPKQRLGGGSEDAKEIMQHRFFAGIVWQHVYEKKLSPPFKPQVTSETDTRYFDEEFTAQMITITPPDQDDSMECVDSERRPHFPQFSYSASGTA
T1 sequence (Q9Y243 whole entry): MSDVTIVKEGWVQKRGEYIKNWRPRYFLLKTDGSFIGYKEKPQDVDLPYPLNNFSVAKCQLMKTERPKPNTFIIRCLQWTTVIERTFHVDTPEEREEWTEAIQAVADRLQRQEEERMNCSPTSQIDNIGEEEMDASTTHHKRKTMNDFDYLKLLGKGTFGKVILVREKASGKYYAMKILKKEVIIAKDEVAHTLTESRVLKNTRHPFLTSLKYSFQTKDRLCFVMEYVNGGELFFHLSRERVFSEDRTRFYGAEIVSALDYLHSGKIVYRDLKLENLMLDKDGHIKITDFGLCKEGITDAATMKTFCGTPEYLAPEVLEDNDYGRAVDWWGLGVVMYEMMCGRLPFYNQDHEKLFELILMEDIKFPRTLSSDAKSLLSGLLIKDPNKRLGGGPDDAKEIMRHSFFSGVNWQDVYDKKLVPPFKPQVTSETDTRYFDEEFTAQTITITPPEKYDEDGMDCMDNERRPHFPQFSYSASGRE
T2 sequence (P31751 whole entry): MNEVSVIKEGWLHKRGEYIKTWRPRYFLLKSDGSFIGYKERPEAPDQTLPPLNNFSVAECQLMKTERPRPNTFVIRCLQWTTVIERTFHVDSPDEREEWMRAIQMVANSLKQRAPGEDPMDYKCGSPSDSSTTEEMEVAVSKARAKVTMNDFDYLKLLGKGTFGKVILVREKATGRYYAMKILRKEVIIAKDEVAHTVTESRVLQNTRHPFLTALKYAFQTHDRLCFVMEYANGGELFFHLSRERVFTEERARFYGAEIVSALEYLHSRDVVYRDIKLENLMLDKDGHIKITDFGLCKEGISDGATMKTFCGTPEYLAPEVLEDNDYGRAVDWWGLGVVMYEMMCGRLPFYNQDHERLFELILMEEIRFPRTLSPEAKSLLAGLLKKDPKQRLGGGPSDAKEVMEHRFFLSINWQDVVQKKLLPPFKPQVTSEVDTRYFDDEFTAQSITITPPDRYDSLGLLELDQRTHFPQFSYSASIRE

Consider `C[C@]1(O)C[C@](N)(c2ccc(-c3oc4ncn(CC(F)(F)F)c(=O)c4c3-c3ccccc3)cc2)C1` [Compound 1, 6-(4-((1s,3s)-1-Amino-3-hydroxy-3-methylcyclobutyl)phenyl)-5-phenyl-3-(2,2,2-trifluoroethyl)furo[2,3-d]pyrimidin-4(3H)-one.HCl], for which, in data set [1], the fraction unbound was not below 0.05 and the “unbound fraction (human plasma) compared with Compound A” value was “significantly higher unbound fraction”. Also, at AKT3, the IC50 was 1000 to 6000 nM and the “potency against AKT3 compared with the comparator compound” value is “improved potency”. Further, the IC50 in data set [2] was not above 500 nM. Besides, in data set [3], the half-life was not above 10 h and the “T1/2 in rodent compared with Compound A” value is given as “shorter T1/2”. Besides, the “>=80% in Selectscreen (at 10 uM) other than AKT1” value (shortened to “>=80% in Selectscreen”) with kinases other than AKT1 is “* (>2 kinases)”. Further, on AKT2, the half-maximal inhibitory concentration (IC50) is not above 20 nM and the “potency against AKT2 compared with the comparator compound” value was “improved potency”. Further, at AKT1, the IC50 was in the range of 300 to 1500 nM and the “potency against AKT1 compared with the comparator compound” value is recorded as “improved potency”.

As for `N[C@]1(c2ccc(-c3oc4ncn(CC(F)(F)F)c(=O)c4c3-c3ccccc3)cc2)C[C@@H](O)C1` [Compound 2, 6-(4-((1r,3r)-1-Amino-3-hydroxycyclobutyl)phenyl)-5-phenyl-3-(2,2,2-trifluoroethyl)furo[2,3-d]pyrimidin-4(3H)-one. HCl], the IC50 at AKT3 is more than 6000 nM; in data set [2], not above 500 nM; at AKT2, not above 20 nM; on AKT1, more than 1500 nM. Further, the “potency against AKT2 compared with the comparator compound” value at AKT2 was “improved potency”.

With `N[C@]1(c2ccc(-c3oc4ncn(CC(F)(F)F)c(=O)c4c3-c3ccccc3)cc2)C[C@H](O)C1` [Compound 3, 6-(4-((1s,3s)-1-Amino-3-hydroxycyclobutyl)phenyl)-5-phenyl-3-(2,2,2-trifluoroethyl)furo[2,3-d]pyrimidin-4(3H)-one.HCl], at AKT3, the concentration for half-maximal inhibition (IC50) is 1000 to 6000 nM and the “potency against AKT3 compared with the comparator compound” value is recorded as “improved potency”. In addition, the IC50 in data set [2] is not above 500 nM. At AKT2, the IC50 is not above 20 nM and the “potency against AKT2 compared with the comparator compound” value is given as “improved potency”. Besides, on AKT1, the IC50 was 300 to 1500 nM and the “potency against AKT1 compared with the comparator compound” value is “improved potency”.

As to `C[C@]1(O)C[C@@](N)(c2ccc(-c3oc4ncn(CC(F)(F)F)c(=O)c4c3-c3ccccc3)cc2)C1` [Compound 4, 6-(4-((1r,3r)-1-Amino-3-hydroxy-3-methylcyclobutyl)phenyl)-5-phenyl-3-(2,2,2-trifluoroethyl)furo[2,3-d]pyrimidin-4(3H)-one.HCl], at AKT3, the IC50 is not above 1000 nM and the “potency against AKT3 compared with the comparator compound” value was “improved potency”. Besides, the IC50 in data set [2] was not above 500 nM. The “off-target kinase activity in the SelectScreen panel compared with Compound A” value in the data set on kinases other than AKT1 (compared with compound A) was “less off-target kinase activity”. Also, the “>=80% in Selectscreen” value in the data set on kinases other than AKT1 was “** (1-2 kinases)”. At AKT2, the concentration for half-maximal inhibition (IC50) was not above 20 nM and the “potency against AKT2 compared with the comparator compound” value was “improved potency”. Further, on AKT1, the IC50 was not above 300 nM and the “potency against AKT1 compared with the comparator compound” value was “improved potency”.

For `C[C@]1(O)C[C@@](N)(c2ccc(-c3sc4ncn(CC(F)(F)F)c(=O)c4c3-c3ccccc3)cc2)C1` [Compound 5, 6-(4-((1r,3r)-1-Amino-3-hydroxy-3-methylcyclobutyl)phenyl)-5-phenyl-3-(2,2,2-trifluoroethyl)thieno[2,3-d]pyrimidin-4(3H)-one.TFA], in data set [1], the fraction unbound is 0.02 to 0.05 and the “unbound fraction (human plasma) compared with Compound A” value is on record as “significantly higher unbound fraction”. For the same compound, on AKT3, the IC50 lay in the range of 1000 to 6000 nM and the “potency against AKT3 compared with the comparator compound” value is reported as “improved potency”. Also, the IC50 in data set [2] was not above 500 nM. For the same compound, in data set [3], the half-life was not above 10 h and the “T1/2 in rodent compared with Compound A” value is reported as “shorter T1/2”. Further, the “>=80% in Selectscreen” value with kinases other than AKT1 is “** (1-2 kinases)”. Also, at AKT2, the IC50 lay within 20 to 100 nM and the “potency against AKT2 compared with the comparator compound” value was “improved potency”. For the same compound, on AKT1, the concentration for half-maximal inhibition (IC50) is not above 300 nM and the “potency against AKT1 compared with the comparator compound” value is given as “improved potency”.

Consider `Cn1c(-c2ccc([C@]3(N)C[C@](C)(O)C3)cc2)c(-c2ccccc2)c2c(=O)n(CC(F)(F)F)cnc21` [Compound 6, 6-(4-((1r,3r)-1-Amino-3-hydroxy-3-methylcyclobutyl)phenyl)-7-methyl-5-phenyl-3-(2,2,2-trifluoroethyl)-3H-pyrrolo[2,3-d]pyrimidin-4(7H)-one.HCl], for which, in data set [1], the free fraction (fraction unbound) fell in the range of 0.02 to 0.05 and the “unbound fraction (human plasma) compared with Compound A” value is “significantly higher unbound fraction”. Besides, on AKT3, the IC50 lay within 1000 to 6000 nM and the “potency against AKT3 compared with the comparator compound” value is given as “improved potency”. For the same compound, the IC50 in data set [2] is not above 500 nM. Further, in data set [3], the half-life was not above 10 h and the “T1/2 in rodent compared with Compound A” value was “shorter T1/2”. For the same compound, the “>=80% in Selectscreen” value in the data set with kinases other than AKT1 is “*** (0 kinases)”. Besides, at AKT2, the IC50 was not above 20 nM and the “potency against AKT2 compared with the comparator compound” value is recorded as “improved potency”. At AKT1, the IC50 is not above 300 nM and the “potency against AKT1 compared with the comparator compound” value is “improved potency”.

On to `Cn1c(-c2ccc([C@]3(N)C[C@@H](O)C3)cc2)c(-c2ccccc2)c2c(=O)n(CC(F)(F)F)cnc21` [Compound 7, 6-(4-((1s,3s)-1-Amino-3-hydroxycyclobutyl)phenyl)-7-methyl-5-phenyl-3-(2,2,2-trifluoroethyl)-3H-pyrrolo[2,3-d]pyrimidin-4(7H)-one.HCl], for which the IC50 was 1000 to 6000 nM on AKT3, not above 500 nM in data set [2], not above 20 nM on AKT2 and 300 to 1500 nM at AKT1. The “potency against AKT3 compared with the comparator compound” value at AKT3 is on record as “improved potency”. Also, the “potency against AKT2 compared with the comparator compound” value at AKT2 was “improved potency”. Further, the “potency against AKT1 compared with the comparator compound” value at AKT1 is listed as “improved potency”.

As to `NC1(c2ccc(-c3oc4ncn(CC(F)(F)F)c(=O)c4c3-c3ccccc3)cc2)CCC1` [Compound A, reference compound], the fraction unbound in data set [1] is not above 0.02. Moreover, the IC50 at AKT3 is more than 6000 nM; on AKT2, 20 to 100 nM; at AKT1, more than 1500 nM. For the same compound, the half-life in data set [3] was more than 24 h. In addition, in the data set on kinases other than AKT1, the “>=80% in Selectscreen” value was “* (>2 kinases)”.
